Experimental data reported in ChEMBL document CHEMBL5634167, “Insights into the structure-activity relationship of the anticancer compound ZJ-101: A role played by the amide moiety” (Bioorg Med Chem Lett, 2024).

How the values were obtained:
Type in all cases: functional, cell-based
MCF7 = assay: Antiproliferative activity against human MCF7 cells assessed inhibition of cell growth incubated for 72 hrs by alamar blue assay; settings: MCF7, 72 h
MDA-MB-231 = assay: Antiproliferative activity against human MDA-MB-231 cells assessed inhibition of cell growth incubated for 72 hrs by alamar blue assay; settings: MDA-MB-231, 72 h
HCT-116 = assay: Antiproliferative activity against human HCT-116 cells assessed inhibition of cell growth incubated for 72 hrs by alamar blue assay; settings: HCT-116, 72 h

| Structure (SMILES) | IC50 (MCF7) | IC50 (MDA-MB-231) | IC50 (HCT-116) |
| --- | --- | --- | --- |
| CC1=C/C=C/C(=O)O[C@@H]([C@H](C)[C@H](O)[C@@H](C)NS(C)(=O)=O)[C@H](C)/C=C/C(C)=C/[C@H]2C=CCC[C@@]2(C)\C=C\1 | 1.12 µM | 1.01 µM | 3.36 µM |
| CC(=O)N[C@H](C)[C@@H](O)[C@@H](C)[C@@H]1OC(=O)/C=C/C=C(C)\C=C\[C@]2(C)CCC=C[C@@H]2/C=C(C)/C=C/[C@H]1C |  |  | 0.0882 µM |
| COC(=O)N[C@H](C)[C@@H](O)[C@@H](C)[C@@H]1OC(=O)/C=C/C=C(C)\C=C\[C@]2(C)CCC=C[C@@H]2/C=C(C)/C=C/[C@H]1C | > 2 µM | > 2 µM | > 5 µM |

Now from value to compound:

| IC50 (MCF7) | IC50 (MDA-MB-231) | IC50 (HCT-116) | Structure (SMILES) |
| --- | --- | --- | --- |
| 0.0414 µM | 0.064 µM | 0.0475 µM | CC1=C/C=C/C(=O)O[C@@H]([C@H](C)[C@H](O)[C@@H](C)NC(=O)C(C)C)[C@H](C)/C=C/C(C)=C/[C@H]2C=CCC[C@@]2(C)\C=C\1 |
| 0.0885 µM | 0.104 µM | 0.136 µM | CNC(=O)N[C@H](C)[C@@H](O)[C@@H](C)[C@@H]1OC(=O)/C=C/C=C(C)\C=C\[C@]2(C)CCC=C[C@@H]2/C=C(C)/C=C/[C@H]1C |
